Reference: patent US9206245B2, “Immunogenic peptides and methods of use for treating and preventing cancer” (The United States of America, as represented by the …, priority 2005, dated 2015)
Where no end group is shown, it is not given here.

Legend:
[1] = target: T1, HLA-B7 (Homo sapiens, UniProt P01889); assay: T2-B7 binding assay: stabilization of HLA-B7 molecules on the surface of T2-B7 cells, flow cytometry; settings: for binding affinity for HLA-B7 compared with natural RS10 peptide: FIGS. 4 and 6; for EC50: FIGS. 4 and 6, read-out: concentration required for a 50% increase in HLA-B7 expression
T1 construct: transfected with the HLA-B7 gene; expressed in transfected cells; host or cells: T2 (TAP1/TAP2-deficient hybrid B and T lymphoblastoid cell line) transfected with the HLA-B7 gene (T2.B7, gift of Peter Cresswell)
Description: A chromosomal translocation-generated fusion protein breakpoint peptide, RS10 (SPQNSIRHNL), is selected on the basis of predicted potential binding to HLA-B7 (Rammensee et al., Immunogenetics 41: 178-228 (1995)). Peptide binding to HLA-B7 is assessed by using stabilization of HLA-B7 molecules on the surface of T2-B7 cells that lack the TAP transporter and therefore express only short-lived empty HLA-B7 molecules unless a peptide is present that can bind and stabilize them. These assays are described in (Stuber et al., Eur. J. Immunol., 22, 2697-2703 (1992), Nijman et al., Eur. J. Immunol., 23, 1215-1219 (1993), Zeh et al., Hum. Immunol., 39, 79-86 (1994), and Smith et al., Internat. Immunol., 9, 1085-1093 (1997)). Cells of the TAP1/TAP2-deficient T2 cell line (Salter et al., Immunogenetics, 21, 235-246 (1985), and Spies et al., Nature, 351, 323-324 (1991)) transfected with the HLA-B7 gene are suspended in culture medium containing heat inactivated FCS (2.5% v/v) and added to 96-well round-bottomed plates at 2×10^5 cells/well. Human β2-microglobulin (Sigma Chemical Co.) is also added at 20 μg/well. Where appropriate, peptide is added to the desired concentration. The cells are then incubated overnight at 37° C. in 5% CO2, followed by washing with PBS containing NaN3 (0.5% w/v and FCS 2% v/v). Next, cells are incubated on ice for 30 min in the presence of primary anti-HLA-B7 specific antibody (BB7.1 hybridoma culture supernatant; ATCC), followed by washing and incubation for 30 min in goat anti-mouse immunoglobulin FITC (Becton Dickinson). Analysis is performed by flow cytometry.
Conventional mAb staining is conducted in PBS containing 0.01% sodium azide on ice. Cells are labeled with FITC- or PE-conjugated mAbs obtained from BD PharMingen (San Diego, Calif.). For each staining of interest, the appropriate isotype-matched control is included. All reagents are used at optimal concentration as determined experimentally. Flow cytometric analysis is performed with a FACScan (BD Biosciences, Mountain View, Calif.). Data are collected on 5000-10,000 viable cell events and analyzed with CellQuest software.

[2] = test system: C1R-B7 target cells; assay: 4 h 51Cr release assay, RS10-specific human CTL line against peptide pulsed C1R-B7 target cells; assay type: cell-based; settings: peptide pulsed at 10 μM, various E:T ratios, versus control peptide
Description: In particular, specific cytotoxic activities are determined in a standard 4 h ^51Cr release assay at various effector:target (E:T) ratios. Briefly, graded doses of viable effector cells are plated in triplicate in 96-well U-bottom culture plates (Corning Glass, Corning, N.Y.) and co-cultured for 4 h with sodium chromate-labeled (100 μCi; NEN, Boston, Mass.) peptide pulsed (10 μM) C1R-B7 target cells. In some experiments, the Rh5, RD and CTR tumor cell lines are used as a target. Supernatants are collected, radioactivity measured, and specific lysis is calculated according to the equation: percentage of specific cytotoxicity=(experimental cpm−spontaneous cpm)/(maximum cpm−spontaneous cpm)×100. Maximum ^51Cr release is determined from supernatants of lysed target cells incubated with Triton X-100 (5% v/v). Spontaneous release is determined from target cells incubated without added effector cells.

T1 sequence (P01889 25-362): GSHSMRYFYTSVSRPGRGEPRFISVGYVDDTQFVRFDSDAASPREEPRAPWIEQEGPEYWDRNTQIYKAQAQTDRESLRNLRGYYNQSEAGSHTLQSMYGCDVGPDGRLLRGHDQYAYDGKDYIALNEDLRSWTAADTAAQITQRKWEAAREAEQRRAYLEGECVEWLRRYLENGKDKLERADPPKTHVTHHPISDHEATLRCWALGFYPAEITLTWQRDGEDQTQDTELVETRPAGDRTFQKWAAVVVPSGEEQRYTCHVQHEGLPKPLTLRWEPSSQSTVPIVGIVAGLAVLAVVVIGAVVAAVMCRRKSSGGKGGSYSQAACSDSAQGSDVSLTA
T1 sequence (P61769 21-119 partner): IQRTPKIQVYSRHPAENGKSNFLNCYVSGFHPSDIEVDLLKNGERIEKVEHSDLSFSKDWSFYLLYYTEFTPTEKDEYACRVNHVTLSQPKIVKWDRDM

Sequence	binding affinity for HLA-B7 compared with natural RS10 peptide [1]	EC50 [1] [nM]	CTL lysis of peptide pulsed C1R-B7 target cells [2]
SPANSIRHNL [RS10-3A, SPANSIRHNL]	higher binding affinity for HLA-B7 than the natural RS10 peptide	~50	specific killing observed
SPQNAIRHNL [RS10-5A]	higher binding affinity for HLA-B7 than the natural RS10 peptide		
SPQNSARHNL [RS10-6A]	higher binding affinity for HLA-B7 than the natural RS10 peptide		
SPQNSIRHNL [RS10, SPQNSIRHNL]		~300	
